The subject of one test is male gypsy moth antenna. The test is described as follows: Coupled gas chromatographic-electroantennographic detection (GC-EAD). Further details: species or system Lymantria dispar. The note with it: EAD peak size and shape (sharp/broad). An outline of the steps:
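GC column effluent split between flame ionization detector and an excised male moth antenna held between saline-filled glass capillary electrodes, tip removed, in a warm air stream. Antennal potentials assigned to compounds by matching retention times with FID peaks.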

The test system of test [1] is male gypsy moth antenna response to pheromone (+)-1. The test is described as follows: EAG short-term (STI) and long-term (LTI) inhibition of pheromone signaling (Example 5). On the set-up: species or system Lymantria dispar. The following applies: for inhibition at 0.001 mg / inhibition at 0.01 mg / inhibition at 0.1 mg / inhibition at 100 µg, 0.1 mg: Lymantria dispar, mean ± S.E.; for inhibition at 0.001 mg: mixed plume (+)-1 100 ng + compound 1 μg; for inhibition at 0.001 mg / inhibition at 0.01 mg / inhibition at 0.1 mg: negative = enhancement, read-out: Activity (%): short-term inhibition (STI); for inhibition at 0.01 mg: mixed plume (+)-1 100 ng + compound 10 μg; for inhibition at 0.1 mg: mixed plume (+)-1 100 ng + compound 100 μg (puff v); for inhibition at 100 µg, 0.1 mg: pure (+)-1 100 ng plume following mixed plume with 100 μg compound, read-out: Activity (%): long-term inhibition (LTI). The gist of the method:
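Excised male gypsy moth antenna in saline pH 6.8 under purified air (300 mL/min); 0.3 s puffs: air, (+)-1 100 ng, (+)-1 plus compound 1, 10, 100 μg per cartridge, then (+)-1 alone. STI: mixed-puff air-corrected depolarization loss versus first pheromone puff; LTI: final pheromone-puff loss.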

Where two headings read alike, the source gives them in different places.

As for `COc1ccc(OC)cc1` [3c{1,1}, 1,4-Dimethoxy benzene], in the test on male gypsy moth antenna, the GC-EAD activity result is “+ sharp”. Besides, in test [1], the inhibition at 0.001 mg was found to be 24 ± 8%; the inhibition at 0.01 mg is 23 ± 9%; the inhibition at 0.1 mg came out at 15 ± 25%; the inhibition at 100 µg, 0.1 mg is -7 ± 10%.

Take `CCCOc1ccc(OC)cc1` [3c{1,3}, 1-methoxy-4-propoxy-benzene]: in the test on male gypsy moth antenna, the GC-EAD activity result is listed as “+ sharp”. In test [1], the inhibition at 0.001 mg came out at 28 ± 16%; the inhibition at 0.01 mg was -2 ± 5%; the inhibition at 0.1 mg came out at 48 ± 14%; the inhibition at 100 µg, 0.1 mg is 39 ± 12%.

`CCOc1ccc(OCC)cc1` [3c{2,2}, 1,4-Diethoxy benzene]: in the test on male gypsy moth antenna, the GC-EAD activity entry is “Trace”. Further, in test [1], the inhibition at 0.001 mg amounted to 7 ± 12%; the inhibition at 0.01 mg was -19 ± 8%; the inhibition at 0.1 mg was -27 ± 15%; the inhibition at 100 µg, 0.1 mg came out at 17 ± 11%.

Take `CCCOc1ccc(OCC)cc1` [3c{2,3}, 1-ethoxy-4-propoxy benzene]: the GC-EAD activity entry in the test with male gypsy moth antenna was “None”. For the same molecule, in test [1], the “long-term inhibition (LTI) activity (in words)” value was “strongest long-term inhibitor”, the inhibition at 0.001 mg is 8 ± 20%, the inhibition at 0.01 mg is -30 ± 10% and the inhibition at 0.1 mg was -62 ± 50%. Besides, the inhibition at 100 µg, 0.1 mg in test [1] was 58 ± 7%. Moreover, the “long-term inhibition (LTI) activity (in words)” value in test [1] (listed as 3c{2, 3}) is on record as “most active”.

For the molecule `CCCOc1ccc(OCCC)cc1` [3c{3,3}, 1,4-Dipropoxy benzene], in the test with male gypsy moth antenna, the GC-EAD activity result was “None”. Besides, in test [1], the inhibition at 0.001 mg was -3 ± 13%; the inhibition at 0.01 mg is -60 ± 38%; the inhibition at 0.1 mg was -100 ± 40%; the inhibition at 100 µg, 0.1 mg is 29 ± 13%.

For the molecule `CC(C)CCOc1ccc(OCCC(C)C)cc1` [3c{5,5}, 1,4-Di-(3-methyl-butyloxy) benzene], in the test with male gypsy moth antenna, the GC-EAD activity result is recorded as “None”. In test [1], the inhibition at 0.001 mg came out at 41 ± 14%; the inhibition at 0.01 mg was found to be 4 ± 26%; the inhibition at 0.1 mg stood at 50 ± 9%; the inhibition at 100 µg, 0.1 mg amounted to 7 ± 4%.

For the origin of these results see patent US9497963B2, “Methods and compositions for control of gypsy moth, Lymantria dispar” (Simon Fraser University, priority 2008, dated 2016).
